According to patent US20220187282A1, “CARDIOMYOCYTE PROLIFERATION” (The Council of the Queensland Institute of Medical Research, priority 2019, published 2022):

Test system: adult cardiomyocytes (MLC2v)
Assay: adult mouse intracardiac injection, BrdU+ cardiomyocytes after fix-dissociation
Type: in vivo
Details: adult mice; for cardiomyocyte DNA synthesis (BrdU+): single dose 10 mg/kg injected into the heart, 3 days
Procedure: 8-week-old male mice were anesthetized with 4% isoflurane (Bayer) with 0.25 L/min oxygen and then maintained with 2% isoflurane. Once, anaesthetised, each mouse received a s.c. buprenorphine injection (0.05 mg/kg). The animals were intubated and ventilated (Minivent, Harvard Apparatus) (tidal volume=250 respiration rate=133 strokes/min). To access the heart, a lateral thoracotomy was performed at the 4th intercostal space. A Hamilton syringe with a 30-gauge needle was used to inject ˜20 ? l of small molecule solution (final concentration 10 mg/kg) into the myocardium. All compounds were emulsified in Kolliphor/PBS solution (20% Kolliphor® HS 15 (w/v) in PBS, pH 7.4) at a concentration of 20 mg/mL. The chest wall was closed using 4-0 silk suture, the skin closed with 6-0 prolene suture and the mouse removed from anaesthesia. Following anaesthesia, mice were supplied with a s.c. injection of buprenorphine (0.05 mg/kg) and carprofen (10 mg/kg) and allowed to recover. Starting from the day of the surgery, mice received daily 5-bromo-2′-deoxyuridine (BrdU) injections (100 mg/kg, i.p.). […]
Cardiomyocytes were the counted, cytospun onto glass slides and stained with BrdU and MLC2v antibodies, relevant secondary antibodies (see Star Methods Table) and Hoechst (1:1000) to quantify proliferating cardiomyocytes. The AlexaFluor 647 was used to stain BrDU to avoid false positive associated with auto-fluorescence inherent in adult cardiomyocytes in blue-green-yellow channels. To quantify proliferation, 5,000 cardiomyocytes per heart were imaged using a Nikon Spinning Disc confocal microscope using a 20× objective.
Finally, we sought to determine whether compounds 3 and 65 could regulate adult cardiomyocyte proliferation in vivo and whether the mevalonate pathway is critical for these effects. […] Following injection, proliferation was assessed using BrdU pulse-chase for 3 days, followed by fix-dissociation of the hearts, enabling preservation and separation of cardiomyocytes (FIG. 7F) and accurate quantification of BrdU positive cardiomyocytes (FIG. 7G). […]

Cc1ccc(NC(=O)c2ccnc(N3CCOCC3)c2)cc1Nc1ccnc(N2CC(C)OC(C)C2)n1 (stereo not drawn) [compound 3] was tested, and the “DNA synthesis response with simvastatin” value (10 mg/kg intracardiac plus simvastatin 20 mg/kg s.c. daily) was “blocked” and the “cardiomyocyte DNA synthesis (BrdU+)” value was “significantly increased”.

For Cc1cc(Oc2ccnc(Nc3ccc(S(N)(=O)=O)cc3)c2)c(-c2ccccn2)nc1C [compound 65], the “cardiomyocyte DNA synthesis (BrdU+)” value was “significantly increased”.
